Source: ChEMBL document CHEMBL1201862, “PubChem BioAssay data set” (2004)
The source made the active and inactive calls.

How the values were obtained:
Cytochrome P450 3A4 [1] = target: T1, Cytochrome P450 3A4 (Homo sapiens, UniProt P08684);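 note: CYP3A4 tested as one member of a cytochrome P450 panel screen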
Cytochrome P450 2C9 [2] = target: T2, Cytochrome P450 2C9 (Homo sapiens, UniProt P11712)
[3] = Luminescence Cell-Based Dose Retest to Confirm Inhibitors of Cancer Stem Cells. [Related pubchem assays (depositor defined):AID2717, AID2721]; type: functional; details: Homo sapiens
[4] = inhibitors of intracellular T. cruzi replication, confirmation, NIH3T3 host cells, beta-gal luminescence (AID 2044); type: functional, cell-based;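 note: intracellular parasites grown in NIH/3T3 mouse fibroblasts as host cells; luminescent beta-galactosidase reporter signal from transgenic T. cruzi replicating inside host cells; inhibitors lower the luminescence signal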
[5] = cytotoxicity toward NIH3T3 fibroblasts, dose response, counter-screen, cell-based, ATP luminescence, mouse fibroblasts (AID 2010); type: functional;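 note: cells exposed to compound for about 90 hours before reading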
INS1 = experiment: beta cell apoptosis inhibitors, cytokine rescue, dose response, luminescence, retest (AID 449756); type: functional, cell-based; details: Rattus norvegicus;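 note: cell death triggered by IL-1 beta plus TNF-alpha plus IFN-gamma mixture; protective hits raise ATP signal compared with cytokine alone wells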
[6] = target: T3, Microphthalmia-associated transcription factor (Homo sapiens, UniProt O75030); experiment: TRPM1 promoter luciferase signal decrease, dose response, MITF inhibitor project, cell-based, SK-MEL-5, cherry-picked, set 3 (AID 493073); type: functional
T3 sequence (O75030 whole entry): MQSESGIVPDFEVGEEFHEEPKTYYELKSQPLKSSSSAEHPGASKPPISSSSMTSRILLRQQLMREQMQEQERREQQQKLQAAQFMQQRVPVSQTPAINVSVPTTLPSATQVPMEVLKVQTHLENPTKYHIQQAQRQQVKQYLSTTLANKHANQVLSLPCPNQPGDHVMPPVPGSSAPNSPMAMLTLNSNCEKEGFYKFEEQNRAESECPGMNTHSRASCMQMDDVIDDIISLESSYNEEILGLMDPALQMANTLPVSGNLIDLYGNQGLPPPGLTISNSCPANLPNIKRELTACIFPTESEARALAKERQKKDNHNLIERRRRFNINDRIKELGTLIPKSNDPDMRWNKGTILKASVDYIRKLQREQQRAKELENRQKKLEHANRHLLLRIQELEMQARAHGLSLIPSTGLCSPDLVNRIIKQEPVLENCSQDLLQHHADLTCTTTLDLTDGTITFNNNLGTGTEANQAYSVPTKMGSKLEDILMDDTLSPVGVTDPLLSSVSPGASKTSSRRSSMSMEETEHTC

Cytochrome P450 1A2 = target: T4, Cytochrome P450 1A2 (Homo sapiens, UniProt P05177);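 note: PubChem cytochrome P450 panel assay, CYP1A2 panel member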
T4 sequence (P05177 whole entry): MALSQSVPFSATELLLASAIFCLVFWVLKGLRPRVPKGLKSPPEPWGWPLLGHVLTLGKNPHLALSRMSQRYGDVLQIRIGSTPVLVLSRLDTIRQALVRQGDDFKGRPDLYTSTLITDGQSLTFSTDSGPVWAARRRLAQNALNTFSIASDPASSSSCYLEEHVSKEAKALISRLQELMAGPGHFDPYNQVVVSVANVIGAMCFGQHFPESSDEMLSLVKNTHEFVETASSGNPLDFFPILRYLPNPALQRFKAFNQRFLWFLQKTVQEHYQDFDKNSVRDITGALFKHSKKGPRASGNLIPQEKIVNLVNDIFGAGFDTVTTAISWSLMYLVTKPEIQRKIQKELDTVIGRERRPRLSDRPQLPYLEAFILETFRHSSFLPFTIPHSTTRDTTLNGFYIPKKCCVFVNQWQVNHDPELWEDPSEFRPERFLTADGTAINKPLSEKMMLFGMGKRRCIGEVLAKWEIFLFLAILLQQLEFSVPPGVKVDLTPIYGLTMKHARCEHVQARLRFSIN

Cytochrome P450 2D6 = Cytochrome P450 2D6 (Homo sapiens, UniProt P10635);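 note: CYP2D6 member of a cytochrome P450 panel assay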
[7] = target: Luciferin 4-monooxygenase (Photinus pyralis, UniProt P08659); experiment: firefly luciferase enzyme inhibitors, dose response, biochemical, luminescence (AID 1891)
[8] = Luminescence Cell-Based Dose Confirmation HTS to Identify Inhibitors of Platelet Dense Granule Release. [Related pubchem assays: 1663 (Primary HTS), 1678 (Summary of Project)]; type: functional
Cytochrome P450 2C19 = Cytochrome P450 2C19 (Homo sapiens, UniProt P33261); experiment: Cytochrome panel assay with activity outcomes. Panel member name: p450-cyp2c19 Compounds with AC50 equal or less than 10 uM are considered active; type: functional; details: read-out: AC50
Cytochrome P450 3A4 [9] = target: T1, Cytochrome P450 3A4; remark: listed apart in the source
[10] = target: T5, Polyadenylate-binding protein 1 (Homo sapiens, UniProt P11940); experiment: PABP1 MLLE–PAM2 binding inhibitor potency, dose response, biochemical, fluorescence polarization, FITC-PAM2 peptide (AID 602259); type: functional; details: read-out: IC50_Mean
[11] = target: T6, RNA-binding protein pos-1 (Caenorhabditis elegans, UniProt G5EF15); experiment: inhibitors of POS-1/mex-3 RNA binding, dose response, biochemical, fluorescence polarization (AID 1964);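 note: purified POS-1 fused to maltose binding protein made in E. coli; potency of compounds blocking POS-1 binding to fluorescent RNA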
T6 sequence (G5EF15 whole entry): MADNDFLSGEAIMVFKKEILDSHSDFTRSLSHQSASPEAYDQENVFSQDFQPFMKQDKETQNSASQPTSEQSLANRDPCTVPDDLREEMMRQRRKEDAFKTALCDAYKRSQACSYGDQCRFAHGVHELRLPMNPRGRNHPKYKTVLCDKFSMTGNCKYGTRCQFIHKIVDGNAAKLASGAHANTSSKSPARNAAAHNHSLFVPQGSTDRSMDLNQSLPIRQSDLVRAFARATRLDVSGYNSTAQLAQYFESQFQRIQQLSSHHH

[12] = target: T7, Zinc finger protein mex-5 (Caenorhabditis elegans, UniProt Q9XUB2); experiment: MEX-5/TCR-2 RNA interaction inhibitors, dose response, biochemical, C. elegans, fluorescence polarization (AID 1960)
T7 sequence (Q9XUB2 whole entry): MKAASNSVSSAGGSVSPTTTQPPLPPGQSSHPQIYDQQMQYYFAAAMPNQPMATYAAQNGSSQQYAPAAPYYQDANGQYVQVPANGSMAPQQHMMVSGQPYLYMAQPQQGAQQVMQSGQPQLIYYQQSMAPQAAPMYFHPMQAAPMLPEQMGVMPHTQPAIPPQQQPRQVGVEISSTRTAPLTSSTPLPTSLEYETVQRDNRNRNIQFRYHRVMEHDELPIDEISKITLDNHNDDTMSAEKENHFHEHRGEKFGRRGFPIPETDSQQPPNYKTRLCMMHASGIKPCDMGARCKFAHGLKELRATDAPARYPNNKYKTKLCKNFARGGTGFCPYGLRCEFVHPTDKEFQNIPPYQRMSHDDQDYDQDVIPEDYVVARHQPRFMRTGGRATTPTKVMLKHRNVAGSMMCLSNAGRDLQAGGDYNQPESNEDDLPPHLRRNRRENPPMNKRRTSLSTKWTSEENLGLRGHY

[13] = target: T5, Polyadenylate-binding protein 1; experiment: PABP1 MLLE–PAM2 interaction inhibitors, dose response, miRNA deadenylation inhibitor project, biochemical, fluorescence polarization, Cy5-PAM2 peptide, secondary (AID 602260); type: functional; details: read-out: IC50_Mean
Cytochrome P450 2C9 [14] = target: T2, Cytochrome P450 2C9; remark: listed apart in the source
H4 = experiment: Luminescence Cell-Based Dose Response HTS to Identify Activators of 5'UTR Stem-Loop Driven Prion Protein mRNA Translation in H4 Neuroglioblastoma Cells. [Related pubchem assays: 1829 (Project Summary), 1814 (Primary HTS)]; type: functional; details: Homo sapiens
[15] = Luminescence Cell-Based Dose Response HTS to Identify Activators of Luciferase Translation or Activity in H4 […] Cells. [Related pubchem assays: 1829 (Project Summary), 1814 (Primary HTS)]; type: functional
[16] = Luminescence Cell-Based Dose Confirmation HTS to Identify Activators of 5'UTR Stem-Loop Driven Alpha-Synuclein mRNA Translation in H4 Neuroglioblastoma Cells. [Related pubchem assays: 1829 (Project Summary), 1814 (Primary HTS)]; type: functional
[17] = growth suppression of PTEN-null colon cells, dose response, cell-based, HCT116 PTEN knockout (AID 1047); type: functional;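 note: HCT116 colon tumor cells with PTEN knocked out; cells exposed to compound for 60 hours before readout; potency for loss of cell viability measured by luminescence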
[18] = growth suppression of beta-catenin-knockout colon cells, dose response, cell-based, HCT116, human colon tumor (AID 1045); type: functional;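 note: HCT116 colon tumor cells with beta catenin knocked out; cells exposed to compound for 60 hours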

Sequence of Cytochrome P450 2D6 (P10635 whole entry): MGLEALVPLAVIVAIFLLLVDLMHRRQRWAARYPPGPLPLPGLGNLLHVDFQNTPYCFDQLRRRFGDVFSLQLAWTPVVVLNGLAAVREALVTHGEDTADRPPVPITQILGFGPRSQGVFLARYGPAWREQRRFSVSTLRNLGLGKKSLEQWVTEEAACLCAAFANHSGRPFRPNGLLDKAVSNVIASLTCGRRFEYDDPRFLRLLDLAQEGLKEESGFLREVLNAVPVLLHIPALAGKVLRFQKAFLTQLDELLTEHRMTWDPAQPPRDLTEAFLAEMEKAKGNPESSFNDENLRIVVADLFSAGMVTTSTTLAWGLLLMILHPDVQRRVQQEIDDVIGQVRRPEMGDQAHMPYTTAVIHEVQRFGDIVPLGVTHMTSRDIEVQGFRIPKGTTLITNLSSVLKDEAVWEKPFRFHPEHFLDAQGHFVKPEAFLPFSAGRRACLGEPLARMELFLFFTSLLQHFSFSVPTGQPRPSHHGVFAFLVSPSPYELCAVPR
T1 sequence (P08684 whole entry): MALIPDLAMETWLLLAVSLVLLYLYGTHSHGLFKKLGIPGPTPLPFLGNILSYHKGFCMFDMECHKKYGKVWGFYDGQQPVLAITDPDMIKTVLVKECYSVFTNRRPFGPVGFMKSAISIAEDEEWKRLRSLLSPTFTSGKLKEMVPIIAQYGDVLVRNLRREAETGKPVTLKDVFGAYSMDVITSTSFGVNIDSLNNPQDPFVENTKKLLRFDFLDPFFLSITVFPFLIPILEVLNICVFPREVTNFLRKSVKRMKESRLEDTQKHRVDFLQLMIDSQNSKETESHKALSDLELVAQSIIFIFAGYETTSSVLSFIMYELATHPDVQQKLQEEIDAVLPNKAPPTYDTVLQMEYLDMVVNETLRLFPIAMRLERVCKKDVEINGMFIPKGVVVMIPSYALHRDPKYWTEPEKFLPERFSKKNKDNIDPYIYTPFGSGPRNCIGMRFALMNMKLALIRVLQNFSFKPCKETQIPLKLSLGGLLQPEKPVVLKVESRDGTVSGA
Sequence of Luciferin 4-monooxygenase (P08659 whole entry): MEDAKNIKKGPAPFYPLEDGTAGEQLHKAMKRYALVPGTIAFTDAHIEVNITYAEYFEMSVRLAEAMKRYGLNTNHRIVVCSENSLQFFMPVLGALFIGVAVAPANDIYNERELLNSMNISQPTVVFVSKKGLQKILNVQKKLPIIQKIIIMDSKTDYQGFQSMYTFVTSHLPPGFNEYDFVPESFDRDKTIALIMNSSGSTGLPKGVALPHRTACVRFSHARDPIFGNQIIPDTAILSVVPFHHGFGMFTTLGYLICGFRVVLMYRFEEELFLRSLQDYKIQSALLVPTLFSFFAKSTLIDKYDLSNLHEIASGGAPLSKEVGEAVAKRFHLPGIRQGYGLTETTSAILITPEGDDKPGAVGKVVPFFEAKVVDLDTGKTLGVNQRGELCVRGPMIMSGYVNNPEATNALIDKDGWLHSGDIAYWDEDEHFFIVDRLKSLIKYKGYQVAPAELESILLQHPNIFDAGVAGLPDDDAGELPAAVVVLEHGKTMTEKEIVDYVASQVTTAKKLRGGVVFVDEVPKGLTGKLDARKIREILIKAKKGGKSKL
T2 sequence (P11712 whole entry): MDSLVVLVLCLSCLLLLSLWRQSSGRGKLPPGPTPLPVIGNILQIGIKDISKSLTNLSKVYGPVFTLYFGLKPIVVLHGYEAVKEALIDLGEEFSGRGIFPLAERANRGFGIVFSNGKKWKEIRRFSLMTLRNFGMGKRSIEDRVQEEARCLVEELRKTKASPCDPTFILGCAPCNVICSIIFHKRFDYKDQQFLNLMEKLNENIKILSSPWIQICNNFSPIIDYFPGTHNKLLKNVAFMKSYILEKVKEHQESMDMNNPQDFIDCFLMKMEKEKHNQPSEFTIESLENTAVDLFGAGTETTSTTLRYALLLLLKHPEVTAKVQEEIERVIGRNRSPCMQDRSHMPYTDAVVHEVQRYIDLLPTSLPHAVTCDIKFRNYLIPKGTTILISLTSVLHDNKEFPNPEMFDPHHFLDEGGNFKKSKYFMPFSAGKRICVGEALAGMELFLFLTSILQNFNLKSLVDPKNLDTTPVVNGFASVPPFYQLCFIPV
Sequence of Cytochrome P450 2C19 (P33261 whole entry): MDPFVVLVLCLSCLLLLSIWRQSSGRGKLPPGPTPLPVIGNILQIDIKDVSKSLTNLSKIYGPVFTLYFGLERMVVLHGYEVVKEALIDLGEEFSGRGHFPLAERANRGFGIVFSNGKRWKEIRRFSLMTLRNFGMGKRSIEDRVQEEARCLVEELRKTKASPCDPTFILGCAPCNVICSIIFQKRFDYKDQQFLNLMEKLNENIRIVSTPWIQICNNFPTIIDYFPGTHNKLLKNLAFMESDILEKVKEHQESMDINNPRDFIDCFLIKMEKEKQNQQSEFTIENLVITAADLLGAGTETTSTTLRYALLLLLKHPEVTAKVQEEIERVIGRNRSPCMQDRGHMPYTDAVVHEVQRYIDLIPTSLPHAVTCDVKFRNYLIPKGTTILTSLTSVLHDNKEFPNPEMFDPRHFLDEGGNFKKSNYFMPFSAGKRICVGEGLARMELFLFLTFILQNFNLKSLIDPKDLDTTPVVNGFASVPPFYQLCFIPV
T5 sequence (P11940 whole entry, the tested form may be a part): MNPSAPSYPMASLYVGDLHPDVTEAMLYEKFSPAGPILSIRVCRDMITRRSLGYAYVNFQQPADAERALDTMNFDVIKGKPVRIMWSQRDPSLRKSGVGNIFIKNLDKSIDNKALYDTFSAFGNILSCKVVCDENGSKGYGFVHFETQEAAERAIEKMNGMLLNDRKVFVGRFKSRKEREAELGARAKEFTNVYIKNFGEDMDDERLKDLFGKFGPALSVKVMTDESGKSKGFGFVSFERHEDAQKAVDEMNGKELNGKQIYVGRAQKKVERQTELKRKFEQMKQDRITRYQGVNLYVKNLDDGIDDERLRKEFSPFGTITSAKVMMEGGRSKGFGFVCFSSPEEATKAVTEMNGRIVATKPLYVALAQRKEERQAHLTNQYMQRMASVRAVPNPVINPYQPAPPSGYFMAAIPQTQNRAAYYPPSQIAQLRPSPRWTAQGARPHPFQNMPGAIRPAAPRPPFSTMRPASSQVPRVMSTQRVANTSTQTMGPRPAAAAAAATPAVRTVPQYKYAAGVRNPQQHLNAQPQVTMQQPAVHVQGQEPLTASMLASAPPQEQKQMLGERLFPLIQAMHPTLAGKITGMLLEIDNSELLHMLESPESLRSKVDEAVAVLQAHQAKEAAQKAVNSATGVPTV

C=CC[C@H](N)C(=O)O
AC50 (Cytochrome P450 3A4 [1]): inconclusive

O=C(OCC#CCSc1nnc(-c2cccc3ccccc23)o1)c1ccco1
AC50 (Cytochrome P450 2C9 [2]): inconclusive

Cc1ccc(C(C)C)c(OCc2n[n+](CC(=O)c3ccc(Cl)cc3)c3n2CCCCC3)c1
AC50 [3]: 3.31 µM (active)
EC50 [4]: 0.304 µM (active)
EC50 [5]: > 60 µM (not active)
AC50 (INS1): 3.41 µM (active)
AC50 [6]: 9.83 µM (active)

O=C(NCc1cccs1)C1CCN(S(=O)(=O)c2cccc3nsnc23)CC1
AC50 (Cytochrome P450 2C9 [2]): inconclusive
AC50 (Cytochrome P450 1A2): 0.158 µM (inconclusive)
AC50 (Cytochrome P450 2D6): 6.31 µM (inconclusive)

CC1(C)CC(N2CCC(=O)NC2=S)CC(C)(C)N1
EC50 [7]: > 112 µM (not active)
EC50 [8]: > 112 µM (not active)

Cc1ccccc1-n1c(=O)cc(N2CC(C)OC(C)C2)[nH]c1=O (stereo unspecified)
AC50 (Cytochrome P450 3A4 [1]): inconclusive

CCC(=O)Nc1cccc(-c2nc3ccccc3c(=O)o2)c1
AC50 (Cytochrome P450 2C9 [2]): inconclusive
AC50 (Cytochrome P450 2C19): 39.8 µM (inconclusive)
AC50 (Cytochrome P450 3A4 [9]): 28.2 µM (inconclusive)
AC50 (Cytochrome P450 2D6): 31.6 µM (inconclusive)

CCN(CC)CCO[C@H]1CC[C@@]2(C)C(=CC[C@@H]3[C@H]2CC[C@]2(C)C(=O)CC[C@H]32)C1
AC50 (Cytochrome P450 3A4 [1]): inconclusive

Cc1ccccc1-c1cc(NCCN2CCOCC2)ncn1
AC50 (Cytochrome P450 1A2): 31.6 µM (inconclusive)
AC50 (Cytochrome P450 3A4 [1]): inconclusive

Cc1ccc(N=C(S)c2ccc3ccccc3n2)c(C)c1
EC50 [7]: > 112 µM (not active)
IC50 [10]: > 66 µM (inactive)
EC50 [8]: > 112 µM (not active)
EC50 [11]: > 300 µM (not active)
EC50 [12]: > 300 µM (not active)
IC50 [13]: > 66 µM (inactive)

Cc1ccc(O)c(N=Nc2ccccc2)n1
EC50 [7]: 1.2 µM (active)
EC50 [8]: < 0.701 µM (active)

Cc1cccc(C(=N)NOC(=O)c2ccccc2Cl)c1
EC50 [7]: 1.96 µM (active)
EC50 [8]: 3.84 µM (active)

CCS(=O)(=O)N1CCC[C@H]2CN3CCc4cc(OC)ccc4[C@@H]3C[C@@H]21
AC50 (Cytochrome P450 2C9 [2]): inconclusive
AC50 (Cytochrome P450 1A2): 31.6 µM (inconclusive)

O=C(CCNC(=O)c1ccc(Br)o1)NCc1ccccn1
AC50 (Cytochrome P450 2C9 [2]): inconclusive
AC50 (Cytochrome P450 2C19): 17.8 µM (inconclusive)
AC50 (Cytochrome P450 3A4 [9]): 14.1 µM (inconclusive)
AC50 (Cytochrome P450 1A2): 14.1 µM (inconclusive)

O=C(/C=C/c1ccc([N+](=O)[O-])s1)N1CCCC1
EC50 [4]: 1.03 µM (active)
EC50 [11]: > 300 µM (not active)
EC50 [12]: > 300 µM (not active)
EC50 [5]: > 60 µM (not active)
AC50 [6]: 9.86 µM (active)

CSc1nc2ccccc2cc1/C=C(\C#N)c1ccccc1
AC50 (Cytochrome P450 3A4 [1]): inconclusive

S=c1nc(-c2ccccc2)oc2c1CCCC2
AC50 (Cytochrome P450 2C9 [2]): inconclusive

C[C@@]12CC[C@@H]3[C@@H](CC[C@H]4C[C@@H](O)CC[C@]43C)[C@H]1CC[C@@H]2c1cc(C(F)(F)F)[nH]n1
AC50 (Cytochrome P450 3A4 [1]): inconclusive
AC50 (Cytochrome P450 2C9 [14]): 7.94 µM (inconclusive)

CC(C)c1ccc(-c2cc(C(=O)NN3CCN(C)CC3)c3ccccc3n2)cc1
EC50 (H4): 9.4 µM (active)
EC50 [7]: 18.2 µM (active)
EC50 [8]: 5.93 µM (active)
EC50 [15]: 3.27 µM (active)
EC50 [16]: 3.59 µM (active)

CCCCCCN1C=CC(=C2C(=O)c3ccccc3C2=O)C=C1
AC50 [6]: 3.86 µM (active)

Cn1c(=O)c2cc(S(=O)(=O)NCCC(=O)NCCc3ccc(Cl)cc3)ccc2n(C)c1=O
AC50 (Cytochrome P450 2C9 [2]): inconclusive
AC50 (Cytochrome P450 1A2): 0.0398 µM (inconclusive)

Cc1noc(C)c1-c1nccc(-n2ccnc2)n1
AC50 (Cytochrome P450 2C9 [2]): inconclusive
AC50 (Cytochrome P450 2D6): 20 µM (inconclusive)

Cc1cccc(NC(=O)CCCN2C(=O)c3cccc4cccc(c34)C2=O)c1
AC50 (Cytochrome P450 2C9 [2]): inconclusive
AC50 (Cytochrome P450 2D6): 25.1 µM (inconclusive)

O=C(N/N=C/c1ccc(F)cc1)c1c(O)nc2ccccc2c1O
AC50 [6]: 9.64 µM (active)

CO/N=C/c1ccc(N2CCN(C(=O)c3ccc(Cl)cc3Cl)CC2)c([N+](=O)[O-])c1
EC50 [17]: 20.3 µM (active)
AC50 (Cytochrome P450 3A4 [1]): inconclusive
EC50 [18]: 22.3 µM (active)

Oc1cccc(/C=N/Nc2nn3cnnc3c3ccccc23)c1
EC50 [7]: 5.06 µM (active)
EC50 [8]: 18.8 µM (active)

O=C(NC1CCN(Cc2ccccc2)CC1)c1ccc(I)cc1
AC50 (Cytochrome P450 1A2): 39.8 µM (inconclusive)
AC50 (Cytochrome P450 3A4 [1]): inconclusive
AC50 (Cytochrome P450 2C9 [14]): 39.8 µM (inconclusive)
